Results from patent publication US20260297106A1, “SPIROCYCLIC SUBSTITUTED OXOISOINDOLINYL PIPERIDINE-2,6-DIONE COMPOUND” (Bristol-Myers Squibb Company, priority 2023, published 2026).

What was measured:
Type in all cases: cell-based
IKZF1 Ikaros [1] = molecular target: T1, IKZF1 Ikaros (Homo sapiens, UniProt Q13422+Q96SW2); assay: Jurkat Cellular Degradation Assay (IKZF1 Ikaros); parameters: endogenous in cells; settings: Jurkat cells, 72 h; for Dmax: human, 100% = no detectable protein remaining, read-out: IKZF1 Ikaros max % deg. observed
T1 sequence (Q13422 whole entry): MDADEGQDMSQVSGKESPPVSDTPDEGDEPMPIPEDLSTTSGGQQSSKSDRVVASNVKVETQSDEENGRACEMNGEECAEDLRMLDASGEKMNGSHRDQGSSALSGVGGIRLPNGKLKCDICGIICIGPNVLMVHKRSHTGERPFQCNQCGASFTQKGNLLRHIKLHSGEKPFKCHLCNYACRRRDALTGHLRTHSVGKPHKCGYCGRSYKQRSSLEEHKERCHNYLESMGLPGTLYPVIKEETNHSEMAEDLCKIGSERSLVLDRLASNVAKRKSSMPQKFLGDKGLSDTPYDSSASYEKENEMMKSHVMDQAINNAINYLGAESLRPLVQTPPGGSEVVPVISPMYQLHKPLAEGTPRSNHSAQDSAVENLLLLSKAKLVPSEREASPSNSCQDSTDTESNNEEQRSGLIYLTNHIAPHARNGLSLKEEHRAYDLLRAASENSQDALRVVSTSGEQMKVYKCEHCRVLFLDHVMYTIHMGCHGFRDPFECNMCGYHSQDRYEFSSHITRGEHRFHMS
T1 sequence (Q96SW2 whole entry): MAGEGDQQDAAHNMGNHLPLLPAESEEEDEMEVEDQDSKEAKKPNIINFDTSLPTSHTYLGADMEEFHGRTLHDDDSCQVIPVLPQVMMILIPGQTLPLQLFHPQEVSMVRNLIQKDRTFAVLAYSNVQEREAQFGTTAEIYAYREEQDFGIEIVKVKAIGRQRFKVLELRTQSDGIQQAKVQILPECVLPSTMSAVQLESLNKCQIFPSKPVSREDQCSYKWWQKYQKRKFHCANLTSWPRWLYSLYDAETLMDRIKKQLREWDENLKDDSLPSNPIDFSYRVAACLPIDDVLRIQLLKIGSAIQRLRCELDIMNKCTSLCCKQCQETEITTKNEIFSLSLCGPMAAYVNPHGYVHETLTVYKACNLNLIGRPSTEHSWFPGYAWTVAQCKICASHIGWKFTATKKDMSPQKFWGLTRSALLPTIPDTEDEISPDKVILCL
T1 sequence (Q16531 whole entry partner): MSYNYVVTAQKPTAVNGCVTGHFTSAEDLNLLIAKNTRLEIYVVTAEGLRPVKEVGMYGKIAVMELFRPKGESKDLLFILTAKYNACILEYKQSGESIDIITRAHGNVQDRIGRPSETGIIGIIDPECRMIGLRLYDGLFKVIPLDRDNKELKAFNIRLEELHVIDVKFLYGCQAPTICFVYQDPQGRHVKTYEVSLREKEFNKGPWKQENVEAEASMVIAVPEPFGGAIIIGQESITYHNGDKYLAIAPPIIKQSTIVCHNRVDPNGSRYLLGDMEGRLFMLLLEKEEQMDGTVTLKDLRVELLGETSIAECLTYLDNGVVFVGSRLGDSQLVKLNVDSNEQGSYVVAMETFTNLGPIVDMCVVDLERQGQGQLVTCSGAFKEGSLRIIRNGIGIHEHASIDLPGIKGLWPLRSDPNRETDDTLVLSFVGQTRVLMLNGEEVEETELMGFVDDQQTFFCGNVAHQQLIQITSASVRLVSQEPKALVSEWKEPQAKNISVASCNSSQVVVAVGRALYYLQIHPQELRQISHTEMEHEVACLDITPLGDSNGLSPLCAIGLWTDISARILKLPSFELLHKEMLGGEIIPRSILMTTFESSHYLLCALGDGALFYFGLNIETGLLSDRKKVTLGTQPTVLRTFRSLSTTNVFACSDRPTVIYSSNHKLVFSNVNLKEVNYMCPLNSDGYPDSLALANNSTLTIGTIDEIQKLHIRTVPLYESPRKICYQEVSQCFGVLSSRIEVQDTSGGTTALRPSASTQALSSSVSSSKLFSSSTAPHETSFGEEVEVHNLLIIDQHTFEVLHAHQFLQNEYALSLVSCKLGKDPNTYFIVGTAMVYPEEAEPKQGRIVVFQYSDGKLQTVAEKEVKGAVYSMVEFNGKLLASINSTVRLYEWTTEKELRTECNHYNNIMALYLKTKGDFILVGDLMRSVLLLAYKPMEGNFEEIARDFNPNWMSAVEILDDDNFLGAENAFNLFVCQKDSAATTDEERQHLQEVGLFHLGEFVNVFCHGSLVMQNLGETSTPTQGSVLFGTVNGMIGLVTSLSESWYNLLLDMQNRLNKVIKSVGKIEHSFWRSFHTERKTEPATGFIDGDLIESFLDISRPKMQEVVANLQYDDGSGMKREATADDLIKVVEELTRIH
Procedure: Jurkat cells were plated at 80,000 cells/well in 40 μL RPMI+10% FBS in a 384-well cell culture plate prior to using acoustic dispensing technology for adding a compound of interest. Cell cultures were incubated for 72 h at 37° C. and 5% CO2. In order to facilitate analysis, cell cultures were spun down at 200 rpm for 5 min and the supernatant was discarded. After shaking the plate to dislodge the cell pellet, cells were resuspended in 50 μL of Fixation Buffer (eBioscience FoxP3 buffer set 00-5523-00) for 60 min at room temperature. After centrifuging and discarding the supernatant, cells were permeabilized with 50 μL of Permeabilization buffer (eBioscience FoxP3 buffer set 00-5523-00) for 10 min at room temperature. Following permeabilization, cells were spun down and the supernatant was replaced with 20 μL fluorescently labelled antibodies against Helios, Ikaros and Aiolos or corresponding Isotype controls in 1× Permeabilization buffer (Ikaros-Alexa488 [Biolegend, Cat #368408, 1:50], Helios-PE [CST, Cat #29360, 1:50], Aiolos-Alexa647 [Biolegend, Cat #371106 Biolegend, 1:25]) and staining reactions were incubated for 1 h at room temperature while protected from light. Subsequently, 30 μL of 1× Permeabilization buffer was added prior to centrifuging the cells and discarding the supernatant. Stained cells were resuspended in 25 μL of flow cytometry staining buffer [PBS+0.2% bovine serum albumin (BSA)] and analyzed using an Intellicyt Ique Plus flow cytometer.
Table A-1 lists the maximum observed degradation of the IKZF1 protein, IKZF2 protein, and IKZF3 protein as measured in the Jurkat Cellular Degradation assay. The results in Table A-I were rounded to two digits. In the Jurkat Cellular Degradation assay, a value of 100% indicated no detectable protein remaining or complete degradation of the protein; and a value of 0% indicated no detectable degradation of the protein by the test compound.

IKZF2 Helios = IKZF2 Helios (Homo sapiens, UniProt Q96SW2+Q9UKS7); assay: Human Regulatory T Cell Degradation Assay (IKZF2 Helios); parameters: T cells were isolated from fresh healthy leukopaks; endogenous in cells; host or cells: FACS-sorted primary human CD4+ CD127low CD25+ Treg cells from healthy leukopaks; settings: human regulatory T cells, 20 hours; for Dmax: Regulatory T cell, 100% = no detectable protein remaining, read-out: IKZF2 Helios max % deg. observed; for DC50: concentration reducing protein level by 50% vs DMSO
Sequence of IKZF2 Helios (Q9UKS7 whole entry): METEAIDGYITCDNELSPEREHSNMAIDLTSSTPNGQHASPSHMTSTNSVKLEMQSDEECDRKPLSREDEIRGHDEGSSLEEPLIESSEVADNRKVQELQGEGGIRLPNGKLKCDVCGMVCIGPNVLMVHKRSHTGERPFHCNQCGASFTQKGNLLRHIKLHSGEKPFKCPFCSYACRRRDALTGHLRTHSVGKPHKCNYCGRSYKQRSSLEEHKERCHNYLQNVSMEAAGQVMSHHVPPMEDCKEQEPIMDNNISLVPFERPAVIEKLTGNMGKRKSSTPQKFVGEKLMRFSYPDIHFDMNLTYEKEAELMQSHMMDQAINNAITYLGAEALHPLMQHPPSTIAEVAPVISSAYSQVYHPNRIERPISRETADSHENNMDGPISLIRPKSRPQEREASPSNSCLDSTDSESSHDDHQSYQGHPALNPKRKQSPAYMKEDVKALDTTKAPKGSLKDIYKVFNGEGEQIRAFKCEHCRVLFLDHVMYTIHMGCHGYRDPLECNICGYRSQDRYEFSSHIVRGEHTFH
Sequence of IKZF2 Helios (Q96SW2 whole entry): as the sequence (Q96SW2 whole entry) above
Sequence of IKZF2 Helios (Q16531 whole entry partner): as the sequence (Q16531 whole entry partner) above
Procedure: (§1) Cryopreserved human regulatory T cells were thawed in RPMI+10% FBS+20 ng/mL IL-2. After being spun at 1200 rpm for 5 mins, the cells were resuspended in RPMI+10% FBS+20 ng/ml and rested at 37° C. with 5% CO2 for 3 hours. The cells were then plated at 40,000 cells/well in 40 μL RPMI+10% FBS+20 ng/ml human IL~2 in a 384 well cell culture plate prior to using acoustic dispensing technology (ECHO 555) for adding compounds of interest. Cell cultures were incubated for 20 hours at 37° C. and 5% CO2. In order to facilitate analysis, cell cultures were spun down at 1200 rpm for 5 minutes and the supernatant was discarded using an EL406 plate washer. After washing three times with 70 μL PBS, cell pellets were resuspended in 50 μL of near IR viability staining solution (Life Technologies, Cat #L34975) and incubated for 30 minutes on ice protected from light. Cells were washed three times with 70 μL PBS+0.5% BSA using an EL406 plate washer. After shaking the plate to dislodge the cell pellet, cells were resuspended in 50 μL of Fixation Buffer (eBioScience FoxP3 buffer set 00-5523-00) for 60 minutes at room temperature. After centrifuging and discarding the supernatant, cells were permeabilized with 50 μL of permeabilization buffer (eBioScience FoxP3 buffer set 00-5523-00) for 10 minutes at room temperature. Following permeabilization, cells were spun down and the supernatant was replaced with 30 μL fluorescently labelled antibodies against the intracellular targets Helios (Helios-APC [BioLegend, Cat #137222, 1:50])]), Aiolos, and Ikaros Ix Permeabilization buffer and staining reactions were incubated for 1 hour at room temperature; protected from light. Subsequently, 30 μL of 1× Permeabilization buffer was added prior to centrifuging the cells and discarding the supernatant. Stained cells were resuspended in 30 μL of flow cytometry staining buffer (PBS+0.5% BSA) and analyzed using an Intellicyt Ique Plus flow cytometer.
Table B-1 lists the maximum observed degradation of the IKZF1 protein and IKZF2 protein as measured in the Human Regulatory Cell T Degradation assay. The results in Table B-1 were rounded to two digits. In the Human Regulatory T Cell Degradation assay, a value of 100% indicated no detectable protein remaining or complete degradation of the protein; and a value of 0% indicated no detectable degradation of the protein by the test compound.

IKZF1 Ikaros [2] = molecular target: T1, IKZF1 Ikaros; assay: Human Regulatory T Cell Degradation Assay (IKZF1 Ikaros); parameters: Cryopreserved healthy donor human peripheral blood mononuclear cells; endogenous in cells; host or cells: primary human PBMC, CD8+ T cells read by flow cytometry; settings: human regulatory T cells, 20 hours, 100% = no detectable protein remaining, read-out: IKZF1 Ikaros max % deg. observed
Procedure: as §1
Table B-1 lists the maximum observed degradation of the IKZF1 protein and IKZF2 protein as measured in the Human Regulatory Cell T Degradation assay. […]

SMILES | Dmax (IKZF1 Ikaros [1]) | Dmax (IKZF2 Helios) | DC50 (IKZF2 Helios) | Dmax (IKZF1 Ikaros [2]) | DC50 (IKZF1 Ikaros [1]; concentration reducing protein level by 50% vs DMSO)
O=C1CCC(N2Cc3c(ccc(-c4cc(CN5CC(c6ccccc6)C5)ccn4)c3F)C2=O)C(=O)N1 (stereo not shown) [Comparative Compound A, 3-(4-fluoro-1-oxo-5-(4-((3-phenylazetidin-1-yl)methyl)pyridin-2-yl)isoindolin-2-yl) piperidine-2,6-dione] | 13% | 101% | 0.0029 µM | 19% | –
Nc1nc(-c2ccc3c(c2)CN(C2CCC(=O)NC2=O)C3=O)ccc1CN1CC2(CCC2)C1 (stereo not shown) [Comparative Compound B, 3-(5-(5-((2-azaspiro[3.3]heptan-2-yl)methyl)-6-aminopyridin-2-yl)-1-oxoisoindolin-2-yl) piperidine-2,6-dione] | 48% | 97% | 0.011 µM | 37% | –
Nc1nc(-c2ccc3c(c2F)CN(C2CCC(=O)NC2=O)C3=O)ccc1CN1CC2(CCCOC2)C1 (stereo not shown) [Example 1, 3-(5-(5-((6-oxa-2-azaspiro[3.5]nonan-2-yl)methyl)-6-aminopyridin-2-yl)-4-fluoro-1-oxoisoindolin-2-yl) piperidine-2,6-dione] | 53% | 100% | 0.01 µM | 49% | 6.44 µM
